Key:
[1] = Size, polydispersity index and surface charge of mRNA-LNP (Malvern Zetasizer Nano ZS90); assay type: physicochemical; details: for PDI / size (nm) Number: mRNA-LNP made with the ionizable lipid at its optimal formulation (Table 2); for size (nm) Number: diluted with PBS to 1 μg/mL mRNA; for Zeta (mV): surface charge of mRNA-LNP made with the ionizable lipid at its optimal formulation (Table 2)
Description: Each mRNA-LNPs produced in Example 27 was diluted with PBS to a final mRNA concentration of 1 μg/mL. The size, polydispersity index (PDI), and surface charge of the mRNA-LNPs were then measured using a Malvern Zetasizer Nano ZS90 (Malvern Instruments, UK).
For particles intended for systemic administration, such as via blood vessels, the particle size must be less than 200 nm in order to pass through the endothelial capillaries of the liver. In addition, the size distribution is considered uniform only when the PDI is 0.3 or less, which enables consistent and efficient therapeutic effects (Non-patent document 3 [Danaei, M. et al). Pharmaceutics 2018, 10, 57]).

[2] = mRNA encapsulation efficiency (Quant-IT RiboGreen RNA assay); assay type: physicochemical; details: mRNA encapsulation efficiency of mRNA-LNP made with the ionizable lipid; average of two measurements
Description: The mRNA encapsulation efficiency (EE, %) of LNPs containing mRNA was measured using the Quant-IT™ RiboGreen® RNA assay kit (Invitrogen, USA).
The diluted samples were added to each well of a 96-well plate. Group A (without Triton X-100) was supplemented with 50 μL of 1×TE buffer, while Group B (with Triton X-100) was supplemented with 50 μL of 1×TE buffer containing 2% Triton-X 100. To release the encapsulated mRNA, the LNPs were treated with Triton-X 100 and incubated at 37° C. for 10 minutes. Subsequently, 100 μL of ribogreen reagent was added to each well. The fluorescence intensities of Group A and Group B were measured using a multi-plate reader (λex 480 nm, λem 520 nm), and mRNA encapsulation efficiency (%) was calculated using Equation 1 below. The encapsulation efficiency for each LNP was determined as the average of two independent measurements.

female C57BL/6 mice = assay: Protein expression efficiency of fLuc mRNA-LNPs after intramuscular injection (IVIS whole-body luminescence); assay type: in vivo; details: for Total flux 1 hour / Total flux 3 hours / Total flux 6 hours / Total flux 48 hours / Total flux 72 hours / Total flux: fLuc mRNA-LNP, intramuscular injection, luminescence at injection site, mice; for Total flux 1 hour: 1 hour after administration; for Total flux 3 hours: 3 hours after administration; for Total flux 6 hours: 6 hours after administration; for Total flux 48 hours: 48 hours after administration; for Total flux 72 hours: 72 hours after administration; for Total flux: after administration; for Fold increase in total flux at 3 h, MC3: relative to control LNP formulated with MC3; for Fold increase in total flux at 3 h, MC3 / Fold increase in total flux at 3 h, SM-102: 3 hours after intramuscular injection; for Fold increase in total flux at 3 h, SM-102: relative to control LNP formulated with SM-102
Description: fLuc mRNA-LNPs formulated using various ionizable lipids were prepared according to the method described in Example 27 and administered in vivo via intramuscular (I. M.) or intravenous (IV.) injection to compare the resulting protein expression efficiency in vivo. As a control, EGFP mRNA-LNPs formulated with commercially available ionizable lipids MC3 or SM-102 were used. All mRNA-LNPs were administered at equal mRNA doses per body weight across different concentration groups (n≥4).
Specifically, the dose of mRNA-LNPs was adjusted to 0.1-0.5 mg/kg of body weight, and the formulation was administered via I.M. or I.V. injection to female C57BL/6 mice (6-10 weeks old, Orient Bio, Korea) Subsequently, […], whole-body luminescence images were acquired using an in vivo imaging system (IVIS Lumina III, PerkinElmer, Walzam, MA, USA). To assess protein expression levels, 200 μL of D-luciferin (15 mg/mL) was administered via intraperitoneal (I.P.) injection 10 minutes prior to imaging. During image acquisition, the animals were anesthetized by inhalation of 3% isoflurane in 97% medical grade oxygen. In addition, the acquired luminescence images were quantitatively analyzed using imaging software (Living Image Software Version 4.4; PerkinElmer, USA).
After intramuscular injection of the fLuc mRNA-LNPs, the luminescence intensity at the injection site was measured over time.
Furthermore, the luminescence intensity at the injection site 3 hours after intramuscular injection was measured, and the relative protein expression efficiency was compared to that of control LNPs formulated with MC3 or SM-102.

[3] = Stability of mRNA-LNPs according to storage temperature and duration; assay type: physicochemical; details: for Normalized EE % D-1 / Size (nm) D-1 / PDI D-1: day 1; for Normalized EE % D-7 / PDI D-7 / Size (nm) D-7: day 7; for Normalized EE % D-30 / PDI D-30 / Size (nm) D-30: day 30
Description: Stability of fLuc mRNA-LNPs produced using various ionizable lipids according to the method of Example 27, was assessed by storing the LNPs at 4° C. and 25° C. At 1, 7, and 30 days post-manufacture, the size, PDI, and encapsulation efficiency (EE) of each mRNA-LNPs samples were measured using the methods described in Experimental Examples 2 and 3.

PDI [1] | size (nm) Number [1] [nm] | Zeta (mV) [1] [mV] | EE (%) [2] [%] | Normalized EE % D-1 ([3]; fLuc mRNA-LNP stored at 4° C.) [%] | Size (nm) D-1 ([3]; fLuc mRNA-LNP stored at 4° C.) [nm] | Normalized EE % D-7 ([3]; fLuc mRNA-LNP stored at 4° C.) [%] | PDI D-7 ([3]; fLuc mRNA-LNP stored at 4° C.) | Size (nm) D-7 ([3]; fLuc mRNA-LNP stored at 4° C.) [nm] | Normalized EE % D-30 ([3]; fLuc mRNA-LNP stored at 4° C.) [%] | PDI D-30 ([3]; fLuc mRNA-LNP stored at 4° C.) | Size (nm) D-30 ([3]; fLuc mRNA-LNP stored at 4° C.) [nm] | Structure (SMILES) | Total flux 1 hour (female C57BL/6 mice) | Total flux 3 hours (female C57BL/6 mice) | Total flux 6 hours (female C57BL/6 mice) | Total flux 48 hours (female C57BL/6 mice) | Total flux 72 hours (female C57BL/6 mice) | Total flux (female C57BL/6 mice) | Fold increase in total flux at 3 h, MC3 (female C57BL/6 mice) | Fold increase in total flux at 3 h, SM-102 (female C57BL/6 mice) | other results
0.145 | 113 | −8.94 | 90 | 90.0 | 112.8 | 83.3 | 0.079 | 120.3 | 89.3 | 0.113 | 115.6 | CCCCCCCCCCCOC(=O)CCCCCN(CCCCCCCC(=O)OC(CCCCCCCC)CCCCCCCC)CC(O)CCCCNC(=O)c1ncc[nH]1 (stereo not shown) [Compound 33, Heptadecan-9-yl 8-((2-hydroxy-6-(1H-imidazole-2-carboxamido)hexyl)(6-oxo-6-(undecyloxy)hexyl)amino)octanoate] | 1.80E+06 | 1.17E+07 | 1.26E+07 | 4.56E+05 | 4.96E+05 | 2.62E+06 | 0.94 | 0.10 | Normalized EE % D-1 ([3]; fLuc mRNA-LNP stored at 25° C.): 90.0%; PDI D-1 ([3]; fLuc mRNA-LNP stored at 25° C.): 0.145; Size (nm) D-1 ([3]; fLuc mRNA-LNP stored at 25° C.): 112.8 nm; Normalized EE % D-7 ([3]; fLuc mRNA-LNP stored at 25° C.): 82.1%; PDI D-7 ([3]; fLuc mRNA-LNP stored at 25° C.): 0.133; Size (nm) D-7 ([3]; fLuc mRNA-LNP stored at 25° C.): 122.9 nm; Normalized EE % D-30 ([3]; fLuc mRNA-LNP stored at 25° C.): 87.2%; PDI D-30 ([3]; fLuc mRNA-LNP stored at 25° C.): 0.113; Size (nm) D-30 ([3]; fLuc mRNA-LNP stored at 25° C.): 106.4 nm
0.145 | 125 | −1.04 | 88 | 88.0 | 124.6 | 85.3 | 0.064 | 121.4 | 87.6 | 0.106 | 126.6 | CCCCCCCCCCCOC(=O)CCCCCN(CCCCCCCC(=O)OC(CCCCCCCC)CCCCCCCC)CC(O)CCCCNC(=O)c1cccn1C (stereo not shown) [Compound 18, Heptadecan-9-yl 8-((2-hydroxy-6-(1-methyl-1H-pyrrole-2-carboxamido)hexyl) (6-oxo-6-(undecyloxy)hexyl)amino)octanoate] | 1.63E+06 | 7.75E+06 | 1.56E+07 | 1.54E+05 | 1.96E+05 | 1.70E+06 | 0.63 | 0.07 | Normalized EE % D-1 ([3]; fLuc mRNA-LNP stored at 25° C.): 88.0%; PDI D-1 ([3]; fLuc mRNA-LNP stored at 25° C.): 0.145; Size (nm) D-1 ([3]; fLuc mRNA-LNP stored at 25° C.): 124.6 nm; Normalized EE % D-7 ([3]; fLuc mRNA-LNP stored at 25° C.): 85.6%; PDI D-7 ([3]; fLuc mRNA-LNP stored at 25° C.): 0.016; Size (nm) D-7 ([3]; fLuc mRNA-LNP stored at 25° C.): 126.1 nm; Normalized EE % D-30 ([3]; fLuc mRNA-LNP stored at 25° C.): 87.0%; PDI D-30 ([3]; fLuc mRNA-LNP stored at 25° C.): 0.125; Size (nm) D-30 ([3]; fLuc mRNA-LNP stored at 25° C.): 127.5 nm
0.154 | 115 | −3.30 | 89 | 89.5 | 114.5 | 89.9 | 0.155 | 123.7 | 90.0 | 0.280 | 138.7 | CCCCCCCCCCCOC(=O)CCCCCN(CCCCCCCC(=O)OC(CCCCCCCC)CCCCCCCC)CC(O)CCCCNC(=O)c1cn(C)cn1 (stereo not shown) [Compound 37, Heptadecan-9-yl 8-((2-hydroxy-6-(1-methyl-1H-imidazole-4-carboxamido)hexyl)(6-oxo-6-(undecyloxy)hexyl)amino)octanoate] | 7.40E+06 | 8.89E+06 | 5.97E+06 | 2.13E+06 | 1.85E+06 | 2.32E+06 | 0.72 | 0.08 | Normalized EE % D-1 ([3]; fLuc mRNA-LNP stored at 25° C.): 89.5%; PDI D-1 ([3]; fLuc mRNA-LNP stored at 25° C.): 0.154; Size (nm) D-1 ([3]; fLuc mRNA-LNP stored at 25° C.): 114.5 nm; Normalized EE % D-7 ([3]; fLuc mRNA-LNP stored at 25° C.): 88.0%; PDI D-7 ([3]; fLuc mRNA-LNP stored at 25° C.): 0.087; Size (nm) D-7 ([3]; fLuc mRNA-LNP stored at 25° C.): 133.6 nm; Normalized EE % D-30 ([3]; fLuc mRNA-LNP stored at 25° C.): 83.8%; PDI D-30 ([3]; fLuc mRNA-LNP stored at 25° C.): 0.126; Size (nm) D-30 ([3]; fLuc mRNA-LNP stored at 25° C.): 135.7 nm
0.132 | 142 | −4.28 | 88 | 88.5 | 142.2 | 91.1 | 0.086 | 141.1 | 87.6 | 0.086 | 147.3 | CCCCCCCCCCCOC(=O)CCCCCN(CCCCCCCC(=O)OC(CCCCCCCC)CCCCCCCC)CC(O)CCCCNC(=O)c1cncn1C (stereo not shown) [Compound 38, Heptadecan-9-yl 8-((2-hydroxy-6-(1-methyl-1H-imidazole-5-carboxamido)hexyl)(6-oxo-6-(undecyloxy)hexyl)amino)octanoate] | 2.19E+07 | 4.19E+07 | 1.47E+07 | 7.89E+05 | 5.32E+05 | 2.13E+06 | 3.39 | 0.37 | Normalized EE % D-1 ([3]; fLuc mRNA-LNP stored at 25° C.): 89.5%; PDI D-1 ([3]; fLuc mRNA-LNP stored at 25° C.): 0.132; Size (nm) D-1 ([3]; fLuc mRNA-LNP stored at 25° C.): 142.2 nm; Normalized EE % D-7 ([3]; fLuc mRNA-LNP stored at 25° C.): 88.0%; PDI D-7 ([3]; fLuc mRNA-LNP stored at 25° C.): 0.093; Size (nm) D-7 ([3]; fLuc mRNA-LNP stored at 25° C.): 140.4 nm; Normalized EE % D-30 ([3]; fLuc mRNA-LNP stored at 25° C.): 86.1%; PDI D-30 ([3]; fLuc mRNA-LNP stored at 25° C.): 0.041; Size (nm) D-30 ([3]; fLuc mRNA-LNP stored at 25° C.): 152.0 nm
0.143 | 117 | −1.50 | 94 | 94.0 | 116.7 | 92.9 | 0.126 | 121.7 | 91.4 | 0.079 | 164.4 | CCCCCCCCCCCOC(=O)CCCCCN(CCCCCCCC(=O)OC(CCCCCCCC)CCCCCCCC)CC(O)CCCCNC(=O)c1c[nH]cn1 (stereo not shown) [Compound 34, Heptadecan-9-yl 8-((2-hydroxy-6-(1H-imidazole-4-carboxamido)hexyl)(6-oxo-6-(undecyloxy)hexyl)amino)octanoate] | 6.37E+06 | 3.60E+07 | 1.70E+07 | 1.11E+06 | 7.64E+05 | 2.79E+06 | 2.91 | 0.32 | Normalized EE % D-1 ([3]; fLuc mRNA-LNP stored at 25° C.): 94.0%; PDI D-1 ([3]; fLuc mRNA-LNP stored at 25° C.): 0.143; Size (nm) D-1 ([3]; fLuc mRNA-LNP stored at 25° C.): 116.7 nm; Normalized EE % D-7 ([3]; fLuc mRNA-LNP stored at 25° C.): 90.9%; PDI D-7 ([3]; fLuc mRNA-LNP stored at 25° C.): 0.139; Size (nm) D-7 ([3]; fLuc mRNA-LNP stored at 25° C.): 129.6 nm; Normalized EE % D-30 ([3]; fLuc mRNA-LNP stored at 25° C.): 89.3%; PDI D-30 ([3]; fLuc mRNA-LNP stored at 25° C.): 0.132; Size (nm) D-30 ([3]; fLuc mRNA-LNP stored at 25° C.): 164.4 nm

Reference: US20260184669A1, “LIPID COMPOUND AND COMPOSITION FOR DELIVERY OF ACTIVE SUBSTANCE” (KOREA RESEARCH INSTIUTE OF BIOSCIENCE AND BIOTECHNOLOGY, priority 2022, published 2026)
